# Active and inactive are the calls of the source. The rule behind the calls is not given here.
# Experiments:
# [1] = biological target: Sphingosine 1-phosphate receptor 1 (Homo sapiens) (UniProt P21453); experiment: Agonist activity at sphingosine-1-phosphate receptor (unknown origin) expressed in HEK293 cells assessed as increase in cAMP level at EC10 after 18 hrs by CRE-responsive renilla luciferase reporter gene assay; assay type: functional, cell-based
# [2] = system: SH-SY5Y; experiment: Effect on BCL2 mRNA expression in human SH-SY5Y cells at EC10 by qPCR method relative to beta-actin; assay type: functional
# [3] = system: SH-SY5Y; experiment: Effect on VEGFA mRNA expression in human SH-SY5Y cells at EC10 by qPCR method relative to beta-actin; assay type: functional
# [4] = system: SH-SY5Y; experiment: Effect on EDNRA mRNA expression in human SH-SY5Y cells at EC10 by qPCR method relative to beta-actin; assay type: functional
# [5] = system: SH-SY5Y; experiment: Effect on EPHA1 mRNA expression in human SH-SY5Y cells at EC10 by qPCR method relative to beta-actin; assay type: functional
# [6] = system: SH-SY5Y; experiment: Effect on ADRB2 mRNA expression in human SH-SY5Y cells at EC10 by qPCR method relative to beta-actin; assay type: functional
# [7] = system: SH-SY5Y; experiment: Effect on COL1A1 mRNA expression in human SH-SY5Y cells at EC10 by qPCR method relative to beta-actin; assay type: functional
# [8] = system: SH-SY5Y; experiment: Effect on GNAS mRNA expression in human SH-SY5Y cells at EC10 by qPCR method relative to beta-actin; assay type: functional
# [9] = system: SH-SY5Y; experiment: Effect on PIK3CG mRNA expression in human SH-SY5Y cells at EC10 by qPCR method relative to beta-actin; assay type: functional
# [10] = system: SH-SY5Y; experiment: Effect on GRM1 mRNA expression in human SH-SY5Y cells at EC10 by qPCR method relative to beta-actin; assay type: functional
# [11] = system: U-118-MG; experiment: Effect on MAG mRNA expression in human U118MG cells at EC10 by qPCR method relative to beta-actin; assay type: functional
# [12] = system: U-118-MG; experiment: Effect on CCL2 mRNA expression in human U118MG cells at EC10 by qPCR method relative to beta-actin; assay type: functional
# [13] = system: U-118-MG; experiment: Effect on IL1B mRNA expression in human U118MG cells at EC10 by qPCR method relative to beta-actin; assay type: functional
# [14] = system: U-118-MG; experiment: Effect on BCL2 mRNA expression in human U118MG cells at EC10 by qPCR method relative to beta-actin; assay type: functional
# [15] = system: U-118-MG; experiment: Effect on MMP9 mRNA expression in human U118MG cells at EC10 by qPCR method relative to beta-actin; assay type: functional
# [16] = system: U-118-MG; experiment: Effect on EPHA1 mRNA expression in human U118MG cells at EC10 by qPCR method relative to beta-actin; assay type: functional
# [17] = system: U-118-MG; experiment: Effect on CYP19A1 mRNA expression in human U118MG cells at EC10 by qPCR method relative to beta-actin; assay type: functional
# [18] = system: U-118-MG; experiment: Effect on NOS2 mRNA expression in human U118MG cells at EC10 by qPCR method relative to beta-actin; assay type: functional
# [19] = system: U-118-MG; experiment: Effect on AKT1 mRNA expression in human U118MG cells at EC10 by qPCR method relative to beta-actin; assay type: functional
# [20] = system: U-118-MG; experiment: Effect on PIK3CG mRNA expression in human U118MG cells at EC10 by qPCR method relative to beta-actin; assay type: functional
# [21] = system: U-118-MG; experiment: Effect on DRD2 mRNA expression in human U118MG cells at EC10 by qPCR method relative to beta-actin; assay type: functional
# [22] = system: SK-N-SH; experiment: Effect on MAG mRNA expression in human SK-N-SH cells at EC10 by qPCR method relative to beta-actin; assay type: functional
# [23] = system: SK-N-SH; experiment: Effect on CCL2 mRNA expression in human SK-N-SH cells at EC10 by qPCR method relative to beta-actin; assay type: functional
# [24] = system: SK-N-SH; experiment: Effect on IFNG mRNA expression in human SK-N-SH cells at EC10 by qPCR method relative to beta-actin; assay type: functional
# [25] = system: SK-N-SH; experiment: Effect on IL6 mRNA expression in human SK-N-SH cells at EC10 by qPCR method relative to beta-actin; assay type: functional
# [26] = system: SK-N-SH; experiment: Effect on FASLG mRNA expression in human SK-N-SH cells at EC10 by qPCR method relative to beta-actin; assay type: functional
# [27] = system: SK-N-SH; experiment: Effect on VEGFA mRNA expression in human SK-N-SH cells at EC10 by qPCR method relative to beta-actin; assay type: functional
# [28] = system: SK-N-SH; experiment: Effect on ICAM1 mRNA expression in human SK-N-SH cells at EC10 by qPCR method relative to beta-actin; assay type: functional
# [29] = system: SK-N-SH; experiment: Effect on VCAM1 mRNA expression in human SK-N-SH cells at EC10 by qPCR method relative to beta-actin; assay type: functional
# [30] = system: SK-N-SH; experiment: Effect on MMP9 mRNA expression in human SK-N-SH cells at EC10 by qPCR method relative to beta-actin; assay type: functional
# [31] = system: SK-N-SH; experiment: Effect on MYC mRNA expression in human SK-N-SH cells at EC10 by qPCR method relative to beta-actin; assay type: functional
# [32] = system: SK-N-SH; experiment: Effect on STAT3 mRNA expression in human SK-N-SH cells at EC10 by qPCR method relative to beta-actin; assay type: functional
# [33] = system: SK-N-SH; experiment: Effect on ADRB2 mRNA expression in human SK-N-SH cells at EC10 by qPCR method relative to beta-actin; assay type: functional
# [34] = system: SK-N-SH; experiment: Effect on CYP19A1 mRNA expression in human SK-N-SH cells at EC10 by qPCR method relative to beta-actin; assay type: functional
# [35] = system: SK-N-SH; experiment: Effect on OPRD1 mRNA expression in human SK-N-SH cells at EC10 by qPCR method relative to beta-actin; assay type: functional
# [36] = system: SK-N-SH; experiment: Effect on TSHR mRNA expression in human SK-N-SH cells at EC10 by qPCR method relative to beta-actin; assay type: functional
# [37] = system: SK-N-SH; experiment: Effect on FGF2 mRNA expression in human SK-N-SH cells at EC10 by qPCR method relative to beta-actin; assay type: functional
# [38] = system: SK-N-SH; experiment: Effect on PIK3CG mRNA expression in human SK-N-SH cells at EC10 by qPCR method relative to beta-actin; assay type: functional
# [39] = system: SK-N-SH; experiment: Effect on AGTR2 mRNA expression in human SK-N-SH cells at EC10 by qPCR method relative to beta-actin; assay type: functional
# [40] = system: SH-SY5Y; experiment: Effect on IL2 mRNA expression in human SH-SY5Y cells at EC10 by qPCR method relative to beta-actin; assay type: functional
# [41] = system: SH-SY5Y; experiment: Effect on S1PR3 mRNA expression in human SH-SY5Y cells at EC10 by qPCR method relative to beta-actin; assay type: functional
# [42] = system: U-118-MG; experiment: Effect on CXCL11 mRNA expression in human U118MG cells at EC10 by qPCR method relative to beta-actin; assay type: functional
# [43] = system: SK-N-SH; experiment: Effect on S1PR3 mRNA expression in human SK-N-SH cells at EC10 by qPCR method relative to beta-actin; assay type: functional
# Sequence of Sphingosine 1-phosphate receptor 1 (Homo sapiens) (P21453 whole entry): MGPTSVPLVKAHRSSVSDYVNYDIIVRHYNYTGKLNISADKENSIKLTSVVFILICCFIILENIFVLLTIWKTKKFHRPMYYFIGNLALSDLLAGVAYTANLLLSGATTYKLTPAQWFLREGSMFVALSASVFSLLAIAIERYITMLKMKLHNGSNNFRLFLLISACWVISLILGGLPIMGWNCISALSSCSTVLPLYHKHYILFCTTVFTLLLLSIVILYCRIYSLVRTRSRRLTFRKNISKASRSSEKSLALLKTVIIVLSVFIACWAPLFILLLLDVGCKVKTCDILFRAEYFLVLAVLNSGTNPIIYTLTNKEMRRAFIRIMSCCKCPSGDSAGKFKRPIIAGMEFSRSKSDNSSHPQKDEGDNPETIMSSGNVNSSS
structure (smiles),measurement,setting,value
CCCCCCCCc1ccc(CCC(N)(CO)CO)cc1 [FINGOLIMOD],Activity,[1],Active
same,fold change (FC),[2],-4.2945
same,fold change (FC),[3],-4.3696
same,fold change (FC),[4],6.8804
same,fold change (FC),[5],-6.442
same,fold change (FC),[6],-11.1967
same,fold change (FC),[7],-5.0806
same,fold change (FC),[8],-3.605
same,fold change (FC),[9],-5.6081
same,fold change (FC),[10],-20.6061
same,fold change (FC),[11],4.0174
same,fold change (FC),[12],-5.2826
same,fold change (FC),[13],-4.3432
same,fold change (FC),[14],-4.7035
same,fold change (FC),[15],-6.3039
same,fold change (FC),[16],-3.7679
same,fold change (FC),[17],-4.301
same,fold change (FC),[18],-5.6458
same,fold change (FC),[19],-2.5763
same,fold change (FC),[20],-3.7491
same,fold change (FC),[21],-2.6579
same,fold change (FC),[22],3.5508
same,fold change (FC),[23],-11.3481
same,fold change (FC),[24],-6.428
same,fold change (FC),[25],-4.6974
same,fold change (FC),[26],-3.5415
same,fold change (FC),[27],-7.7644
same,fold change (FC),[28],-4.0965
same,fold change (FC),[29],-7.0341
same,fold change (FC),[30],-13.1489
same,fold change (FC),[31],-8.3361
same,fold change (FC),[32],-8.0243
same,fold change (FC),[33],-6.7945
same,fold change (FC),[34],-7.2069
same,fold change (FC),[35],4.9782
same,fold change (FC),[36],-4.4134
same,fold change (FC),[37],-7.3456
same,fold change (FC),[38],-5.7333
same,fold change (FC),[39],3.8122
CCCCCCCCn1nnnc1CCC(N)(CO)CO.Cl,Activity,[1],Active
same,fold change (FC),[40],-3.9071
same,fold change (FC),[2],-4.8227
same,fold change (FC),[3],-6.1896
same,fold change (FC),[4],3.6859
same,fold change (FC),[5],-6.2326
same,fold change (FC),[6],-4.5291
same,fold change (FC),[7],-4.939
same,fold change (FC),[8],-8.1531
same,fold change (FC),[41],-2.5755
same,fold change (FC),[9],-3.5167
same,fold change (FC),[10],-4.806
same,fold change (FC),[13],-3.0275
same,fold change (FC),[42],-2.9665
same,fold change (FC),[14],-4.6127
same,fold change (FC),[15],-4.4691
same,fold change (FC),[16],-4.2116
same,fold change (FC),[17],-3.3614
same,fold change (FC),[18],-4.0673
same,fold change (FC),[19],-2.6892
same,fold change (FC),[20],-4.5938
same,fold change (FC),[21],-2.5398
same,fold change (FC),[23],-8.981
same,fold change (FC),[24],-3.6601
same,fold change (FC),[25],-11.9743
same,fold change (FC),[26],-2.9626
same,fold change (FC),[27],-7.9138
same,fold change (FC),[28],-9.5591
same,fold change (FC),[29],-5.4618
same,fold change (FC),[30],-5.1049
same,fold change (FC),[31],-4.315
same,fold change (FC),[32],-5.0696
same,fold change (FC),[33],-4.3526
same,fold change (FC),[34],-5.5959
same,fold change (FC),[35],3.2561
same,fold change (FC),[36],5.2621
same,fold change (FC),[43],-4.0052
same,fold change (FC),[37],-6.7243
same,fold change (FC),[38],-7.7108
same,fold change (FC),[39],9.0827
CCCCCCCCn1nnnc1-c1ccc(C(O)CC(N)(CO)CO)cc1.Cl (stereo unspecified),Activity,[1],Active
same,fold change (FC),[40],-4.4248
same,fold change (FC),[8],-4.6852
same,fold change (FC),[41],-3.7208
same,fold change (FC),[11],3.7859
same,fold change (FC),[12],-5.2393
same,fold change (FC),[42],-4.2262
same,fold change (FC),[15],-4.5002
same,fold change (FC),[22],3.9862
same,fold change (FC),[23],-4.9933
same,fold change (FC),[25],-4.899
same,fold change (FC),[43],-4.5159

# — ChEMBL document CHEMBL3872249, “Computer design, synthesis, and bioactivity analyses of drugs like fingolimod used in the treatment of multiple sclerosis” (Bioorg Med Chem, 2017)
